Read-outs that look alike come from different tables or passages of the source.
Legend:
in vivo = test: in vivo
Method: A separate group of rabbits were studied to obtain pharmacokinetic data. In these rabbits the implants were inserted using a surgical intravitreal implantation procedure performed as follows: a conjunctival incision was made, and a sclerotomy was performed with a 20-gauge MVR blade. The sclerotomy was 3 mm from the limbus and lateral to the dorsal rectus muscle between the 10 and 12 o'clock positions on the right eye, and between the 12 and 2 o'clock positions on the left eye. Using a sterile forceps, the test article was inserted through the sclerotomy. The sclerotomy was closed with 9-0 Prolene suture material. A sterile ocular lubricant was applied to the eye following the implantation procedure. Blood was collected from rabbits prior to euthanasia/necropsy on Days 8, 31, 58, 91, 136, or 184. The aqueous humor, vitreous humor, lens, retina and plasma samples from the rabbits were analyzed by using liquid chromatography-mass spectrometry/mass spectrometry (LC-MS/MS) methods.

[1] = system: Branch retinal vein occlusion (BRVO); test: intravitreal implants in monkeys with laser-induced branch retinal vein occlusion (BRVO); format: in vivo, Cynomolgus monkeys
Method: Baseline measures were performed 3 days prior to implantation and 10 days following implantation with intraocular pressure (IOP), mfERG, laser Doppler scanning topography/flowmetry (HRT/HRF), optical coherence tomography (OCT), indocyanine green angiography (ICG) and fluorescein angiography (FA).
Wide angle contact lens fundus photography verified implant count and localization.
Branch retinal vein occlusion (BRVO) was achieved by injecting 1 ml of 20 mg/kg Rose Bengal intravenously followed by thermal irradiation using Omni Coherent Diode laser at 532 nm, 600 mW, 50 um spot size, 0.01 sec pulse mode with a 1.6× inversion contact lens. Laser pulses were delivered until the vein segment was closed. […] Occlusion was verified post-laser by fundus photography.
Delay in fluorescein filling of the occluded vein was quantified using Metamorph 6.0 software. Intensity measurements were made with pre-defined regions of interest for early and late phases of fluorescein angiography to quantify delay in filling and the observed delay in fluorescein clearance.
Intraocular pressure (IOP) was recorded (OD and OS) in each group in triplicate post implantation and prior to all follow-up electrophysiology and retinal imaging procedures.
Multi-focal ERG was performed using a VERIS 5.0 system.

[2] = cited from earlier work
[3] = albino, rabbit, lens, other: intravitreal implantation, 200 μg
[4] = albino, rabbit, plasma, other: intravitreal implantation, 200 μg
[5] = albino, rabbit, retina, other: intravitreal implantation, 200 μg
[6] = albino, rabbit, vitreous humor, other: intravitreal implantation, 200 μg

Iris-ciliary body brimonidine concentration, estimated mean value in parentheses (in vivo; Day 8, Formulation #17 implant, estimate including ALQ samples): 3010 ng/g | Iris-ciliary body brimonidine concentration (in vivo; Day 8 after intravitreal 200 μg brimonidine implant (Formulation #17), N = 2, two samples ALQ): 942 ng/g | period of detectable release from the implant into the vitreous (in vivo; Formulation #17 implant): at least a ninety day period | time brimonidine was present in the retina (in vivo; Formulation #17 implant): at least 84 days | concentration at 91 day (in vivo; albino, rabbit, iris-ciliary body, other: intravitreal implantation, 200 μg): 42.9 ± 18.7 ng/g | concentration at 58 day (in vivo; [3]): 17.9 ± 12.5 ng/g | concentration at 136 day (in vivo; [3]): 16.2 ± 12.3 ng/g | concentration at 184 day (in vivo; [3]): 1.18 ± 0.71 ng/g | concentration at 8 day (in vivo; [4]): 0.092 ng/mL | concentration at 31 day (in vivo; [4]): 0.0575 ng/mL | concentration at 58 day (in vivo; [4]): 0.255 ng/mL | concentration at 58 day (in vivo; [5]): 122 ± 57.3 ng/g | concentration at 91 day (in vivo; [5]): 488 ± 471 ng/g | concentration at 184 day (in vivo; [5]): 59.8 ± 35 ng/g | concentration at 31 day (in vivo; [6]): 9.35 ± 6.25 ng/mL | concentration at 58 day (in vivo; [6]): 5.6 ± 3.24 ng/mL | detectability in the aqueous humor (in vivo; any time point (Days 8-184), Formulation #17 implant): not detectable at any time point
SMILES: Brc1c(NC2=NCCN2)ccc2nccnc12 [brimonidine, 5-bromo-6-(2-imidazolidinylideneamino) quinoxaline]
route of clearance after release from the intravitreal implant (in vivo; Formulation #17 implant): posterior clearance as opposed to an anterior clearance | blood flow in the fovea (Laser Doppler Flowmetry) ([1]; following BRVO, FIG. 14): unchanged | amount of laser burns needed to close the veins ([1]; n=2): 157±79 | solubility in water ([2]; listed as brimonidine free base): not water soluble | solubility in water ([2]; listed as brimonidine freebase): negligible

Reference: patent US8529927B2, “Alpha-2 agonist polymeric drug delivery systems” (Allergan, Inc., priority 2004, dated 2013)
